The values below come from PubChem BioAssay AID256 (DTP/NCI, 2004).

Several values for one entry are separate records, joined by “and”; a condition that tells them apart may be missing. Equal entries are not always repeated. Toxic doses and inconclusive results are not listed.

The assay has as its system CD2F1 mice, L1210 leukemia ip, survival T/C. As to the kind of experiment: NCI In Vivo Anticancer Drug Screen. Data for tumor model L1210 Leukemia (intraperitoneal) in CD2F1 (CDF1) mice. The following applies: higher = longer survival. In a few lines: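 Vehicle-treated tumor-bearing mice served as controls (C) for compound-treated mice (T). Reported figure is T divided by C.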

The mark [1] stands for this setting: endpoint: mean survival time, dose: 12.5 mg/kg/injection, schedule: Q01DX009 (ip), vehicle: saline with Tween-80.
The mark [2] stands for this setting: endpoint: mean survival time, dose: 25.0 mg/kg/injection, schedule: Q01DX009 (ip), vehicle: saline with Tween-80.
Setting [3] is: endpoint: mean survival time, dose: 50.0 mg/kg/injection, schedule: Q01DX009 (ip), vehicle: saline with Tween-80.
Setting [4] is: endpoint: mean survival time, dose: 100.0 mg/kg/injection, schedule: Q01DX009 (ip), vehicle: saline with Tween-80.
[5] abbreviates: endpoint: mean survival time, dose: 200.0 mg/kg/injection, schedule: Q01DX009 (ip), vehicle: saline with Tween-80.
Where [6] appears, read: endpoint: mean survival time, dose: 200.0 mg/kg/injection, schedule: Q01DX009 (ip), vehicle: saline.
Setting [7] is: endpoint: mean survival time, dose: 100.0 mg/kg/injection, schedule: Q04DX003 (ip), vehicle: saline with Tween-80.
Where [8] appears, read: endpoint: mean survival time, dose: 200.0 mg/kg/injection, schedule: Q04DX003 (ip), vehicle: saline with Tween-80.
Setting [9] is: endpoint: mean survival time, dose: 400.0 mg/kg/injection, schedule: Q04DX003 (ip), vehicle: saline with Tween-80.
[10] abbreviates: endpoint: mean survival time, dose: 400.0 mg/kg/injection, schedule: Q01DX009 (ip), vehicle: saline with Tween-80.
Where [11] appears, read: endpoint: mean survival time, dose: 100.0 mg/kg/injection, schedule: Q04DX002 (ip), vehicle: saline.
[12] abbreviates: endpoint: mean survival time, dose: 200.0 mg/kg/injection, schedule: Q04DX002 (ip), vehicle: saline.
Setting [13] is: endpoint: mean survival time, dose: 100.0 mg/kg/injection, schedule: Q01DX001 (ip), vehicle: saline with Tween-80.
Setting [14] is: endpoint: mean survival time, dose: 200.0 mg/kg/injection, schedule: Q01DX001 (ip), vehicle: saline with Tween-80.
Setting [15] is: endpoint: mean survival time, dose: 400.0 mg/kg/injection, schedule: Q01DX001 (ip), vehicle: saline with Tween-80.

For the compound `O=C1c2ccccc2C(=O)N1CC(O)CN1C(=O)c2ccccc2C1=O`, the T/C was 98 % of control (endpoint: mean survival time, dose: 50.0 mg/kg/injection, schedule: Q01DX001 (ip), vehicle: other); 100 % of control (endpoint: mean survival time, dose: 100.0 mg/kg/injection, schedule: Q01DX001 (ip), vehicle: other); 93 % of control (endpoint: mean survival time, dose: 200.0 mg/kg/injection, schedule: Q01DX001 (ip), vehicle: other); 94 % of control (endpoint: mean survival time, dose: 400.0 mg/kg/injection, schedule: Q01DX001 (ip), vehicle: other).

On to `O=C(Nc1ccccc1C(=O)O)c1cc([N+](=O)[O-])cc([N+](=O)[O-])c1`, for which the T/C was 95 % of control and 97 % of control under setting [1]; 101 % of control and 103 % of control under setting [2]; 100 % of control and 101 % of control under setting [3]; 95 % of control and 97 % of control under setting [4]; 96 % of control under setting [5].

As to `O=C(CCCCC(=O)Nc1ccc(C2=NCCN2)cc1)Nc1ccc(C2=NCCN2)cc1`, the T/C reads like this: (endpoint: mean survival time, dose: 75.0 mg/kg/injection, schedule: Q01DX009 (ip), vehicle: saline) 168 % of control; (endpoint: mean survival time, dose: 150.0 mg/kg/injection, schedule: Q01DX009 (ip), vehicle: saline) 216 % of control; (endpoint: mean survival time, dose: 300.0 mg/kg/injection, schedule: Q01DX009 (ip), vehicle: saline) 236 % of control.

In the case of `O=[N+]([O-])CC(O)C(O)C(O)C(O)CO` (stereo unspecified), the T/C runs as follows: (endpoint: mean survival time, dose: 100.0 mg/kg/injection, schedule: Q01DX009 (ip), vehicle: saline) 107 % of control; under setting [6], 112 % of control; (endpoint: mean survival time, dose: 400.0 mg/kg/injection, schedule: Q01DX009 (ip), vehicle: saline) 107 % of control.

Take `COc1cc2cc(c1Cl)N(C)C(=O)CC(OC(=O)CC(C)C)C1(C)OC1C(C)C1CC(O)(NC(=O)O1)C(OC)/C=C/C=C(C)C2` (stereo unspecified): the T/C reads like this: (endpoint: mean survival time, dose: 3.8 micrograms/kg/injection, schedule: Q01DX009 (ip), vehicle: saline + alcohol) 103 % of control; (endpoint: mean survival time, dose: 7.5 micrograms/kg/injection, schedule: Q01DX009 (ip), vehicle: saline + alcohol) 103 % of control; (endpoint: mean survival time, dose: 15.0 micrograms/kg/injection, schedule: Q01DX009 (ip), vehicle: saline + alcohol) 112 % of control; (endpoint: mean survival time, dose: 30.0 micrograms/kg/injection, schedule: Q01DX009 (ip), vehicle: saline + alcohol) 112 % of control; (endpoint: mean survival time, dose: 60.0 micrograms/kg/injection, schedule: Q01DX009 (ip), vehicle: saline + alcohol) 111 % of control.

In the case of `CCOC1(CC)CN(Cc2ccccc2)CCO1` (stereo unspecified), the T/C under setting [7] is 100 % of control, the T/C under setting [8] was 100 % of control and the T/C under setting [9] was 97 % of control.

For `CN(CC#CCOc1ccc(Br)cc1)c1ccccc1`, the T/C under setting [4] is 103 % of control, the T/C under setting [5] was 100 % of control and the T/C under setting [10] is 97 % of control.

On to `CN(C)CCNC(=O)c1ccc(N)cc1`, for which the T/C under setting [11] was 102 % of control and the T/C under setting [12] was 102 % of control.

Turning to `O/N=C/C1CCCC[N-]1.[Co+3].[O-]/N=C/C1CCCC[N-]1.[O-]/N=C/C1CCCC[N-]1.[O-][Cl+3]([O-])([O-])O` (stereo unspecified), the T/C runs as follows: (endpoint: mean survival time, dose: 100.0 mg/kg/injection, schedule: Q01DX001 (ip), vehicle: saline) 108 % of control; (endpoint: mean survival time, dose: 200.0 mg/kg/injection, schedule: Q01DX001 (ip), vehicle: saline) 96 % of control; (endpoint: mean survival time, dose: 400.0 mg/kg/injection, schedule: Q01DX001 (ip), vehicle: saline) 96 % of control.

Regarding `Cc1ccc(S(=O)(=O)/N=S(\C)c2ccc(Cl)cc2)cc1` (stereo unspecified), the T/C reads like this: under setting [7], 97 % of control; under setting [8], 108 % of control; under setting [9], 90 % of control.

With `O=C1C=CC(=O)N1c1ccc(Cl)cc1[N+](=O)[O-]`, the T/C is 98 % of control (endpoint: mean survival time, dose: 6.25 mg/kg/injection, schedule: Q04DX003 (ip), vehicle: saline with Tween-80); 97 % of control under setting [1]; 101 % of control (endpoint: mean survival time, dose: 12.5 mg/kg/injection, schedule: Q04DX003 (ip), vehicle: saline with Tween-80); 96 % of control under setting [2]; 98 % of control (endpoint: mean survival time, dose: 25.0 mg/kg/injection, schedule: Q04DX003 (ip), vehicle: saline with Tween-80).

In the case of `C1=C\CCCCCCCC/1`, the T/C was 100 % of control under setting [7] and 100 % of control under setting [9].

In the case of `CCCn1cnc2c(=S)nc[nH]c21`, the T/C is 119 % of control (endpoint: mean survival time, dose: 150.0 mg/kg/injection, schedule: Q01DX Z (ip), vehicle: carboxymethylcellulose (CMC)); 150 % of control (endpoint: mean survival time, dose: 150.0 mg/kg/injection, schedule: Q04DX003 (ip), vehicle: saline with Tween-80); 95 % of control (endpoint: mean survival time, dose: 200.0 mg/kg/injection, schedule: Q01DX Z (ip), vehicle: carboxymethylcellulose (CMC)); 161 % of control (endpoint: mean survival time, dose: 300.0 mg/kg/injection, schedule: Q04DX003 (ip), vehicle: saline with Tween-80); 111 % of control (endpoint: mean survival time, dose: 600.0 mg/kg/injection, schedule: Q04DX003 (ip), vehicle: saline with Tween-80).

As for `CNC(=O)N(C)CC(O)C(O)C(O)C(O)CO` (stereo unspecified), the T/C reads like this: under setting [7], 97 % of control; under setting [8], 104 % of control; under setting [9], 106 % of control.

As to `O=C(O)c1c[nH]c2ccccc2c1=O`, the T/C was 101 % of control under setting [7], 101 % of control under setting [8] and 90 % of control under setting [9].

On to `NC(CSC(c1ccccc1)(c1ccccc1)c1ccccc1)C(=O)NCC(=O)O` (stereo unspecified), for which the T/C runs as follows: (endpoint: mean survival time, dose: 25.0 mg/kg/injection, schedule: Q01DX009 (ip), vehicle: saline) 110 % of control; under setting [6], 171 % of control.

On to `O=C(Cc1ccc([N+](=O)[O-])cc1)Nc1ccc(O)cc1`, for which the T/C was 98 % of control under setting [13], 104 % of control under setting [14] and 101 % of control under setting [15].

Regarding `Nc1ccc(OC(=O)c2ccccc2)cc1`, the T/C by setting is: (endpoint: mean survival time, dose: 12.5 mg/kg/injection, schedule: Q01DX001 (ip), vehicle: saline with Tween-80) 92 % of control; under setting [1], 91 % of control; (endpoint: mean survival time, dose: 25.0 mg/kg/injection, schedule: Q01DX001 (ip), vehicle: saline with Tween-80) 90 % of control; under setting [2], 86 % of control; (endpoint: mean survival time, dose: 50.0 mg/kg/injection, schedule: Q01DX001 (ip), vehicle: saline with Tween-80) 90 % of control.

Take `O=[N+]([O-])C1CC=CCC1C(Cl)(Cl)Cl` (stereo unspecified): the T/C by setting is: (endpoint: mean survival time, dose: 5.0 mg/kg/injection, schedule: Q01DX009 (ip), vehicle: saline with Tween-80) 97 % of control; (endpoint: mean survival time, dose: 10.0 mg/kg/injection, schedule: Q01DX009 (ip), vehicle: saline with Tween-80) 103 % of control.

With `CCOC(=O)C1CC(C(=O)OCC)C(=O)C1=O` (stereo unspecified), the T/C is 105 % of control under setting [4], 103 % of control under setting [5] and 97 % of control under setting [10].

`COc1cc(OC)c(NC(=O)Oc2ccccc2F)cc1Cl`: the T/C under setting [3] is 92 % of control, the T/C under setting [4] was 100 % of control and the T/C under setting [5] was 100 % of control.

On to `CC(C)(Nc1nc2c(ncn2C2OC(CO)C(O)C2O)c(=O)[nH]1)P(=O)(O)O` (stereo unspecified), for which the T/C is 105 % of control (endpoint: median survival time, dose: 12.5 mg/kg/injection, schedule: Q01DX005 (ip), vehicle: water); 103 % of control (endpoint: median survival time, dose: 25.0 mg/kg/injection, schedule: Q01DX005 (ip), vehicle: water); 108 % of control (endpoint: median survival time, dose: 50.0 mg/kg/injection, schedule: Q01DX005 (ip), vehicle: water); 105 % of control (endpoint: median survival time, dose: 100.0 mg/kg/injection, schedule: Q01DX005 (ip), vehicle: water).

On to `O=C1CCC(=O)O1`, for which the T/C was 95 % of control under setting [4] and 102 % of control under setting [5].

As to `O=C(O)c1ccc(NC(=S)NC(=O)c2cccc(Br)c2)cc1`, the T/C by setting is: under setting [13], 97 % of control; under setting [4], 95 % of control and 97 % of control; (endpoint: mean survival time, dose: 100.0 mg/kg/injection, schedule: Q04DX002 (ip), vehicle: saline with Tween-80) 95 % of control; under setting [7], 100 % of control; under setting [14], 88 % of control and 101 % of control; under setting [5], 95 % of control and 101 % of control. Moreover, the T/C by setting is: (endpoint: mean survival time, dose: 200.0 mg/kg/injection, schedule: Q04DX002 (ip), vehicle: saline with Tween-80) 94 % of control and 103 % of control; under setting [8], 90 % of control; under setting [15], 92 % of control and 95 % of control; under setting [10], 86 % of control; (endpoint: mean survival time, dose: 400.0 mg/kg/injection, schedule: Q04DX002 (ip), vehicle: saline with Tween-80) 97 % of control and 106 % of control; under setting [9], 93 % of control.

Consider `Cc1c(-c2ccc(Cl)cc2)nc2cc(Cl)ccc2c1C(=O)O`, for which the T/C under setting [11] was 92 % of control; the T/C under setting [12] was 88 % of control; the T/C (endpoint: mean survival time, dose: 400.0 mg/kg/injection, schedule: Q04DX002 (ip), vehicle: saline) is 98 % of control.
